Tests used:
Type in all cases: cell-based
[1] = test system: PD-L1; experiment: STAT3 RT-qPCR assay, PD-L1 mRNA; details: SU-DHL-1 cells
Procedure: (§1) SU-DHL-1 cells were treated with compounds for a designed time. 0.3-0.6 mL lysis buffer with 2-mercaptoethanol was added to the collected cell pellet or monolayer cells. The cells were vortexed until the cell was dispersed and the cells appear lysed. One volume of 70% ethanol was added to each volume of cell homogenate and vortex. 700 μL of the sample was transferred to the spin cartridge and centrifuged at 12000 g for 15s at RT. The flow-through was discarded and the process repeated until the entire samples had been processed. 700 ul wash buffer I was added to the spin cartridge and centrifuged at 12000 g for 15s at RT and the flow-through was discarded. 500 μL wash buffer II with ethanol was added to the spin cartridge and centrifuged at 12000 g for 15s at RT and the flow-through was discarded. The process was then repeated. The spin cartridge was centrifuged at 12000 g for 2 min to dry the membrane with bound RNA. 30-100 μL RNase-free water was added to the center of the spin cartridge and incubated for 1 min at RT. […] The concentration of the RNA was quantitated using Nano-Drop. cDNA was formed from the RNA by reverse transcription and qPCR of the cDNA with primer of the gene of interest and housekeeping gene was preformed using the volumes below: […]

[2] = test system: SU-DHL-1 cells; experiment: Caspase 3/7-Glo activity assay; details: SU-DHL-1, FIG. 17
Procedure: Determination of apoptosis was determined using a Caspase 3/7-Glo assay.
• 1—Prepare the Caspase-Glo® 3/7 Reagent (Promega cat #G8090) • Equilibrate the Caspase-Glo® 3/7 Buffer and lyophilized Caspase-Glo® 3/7 Substrate to room temperature before use. • Transfer the contents of the Caspase-Glo® 3/7 Buffer bottle into the amber bottle containing Caspase-Glo® 3/7 Substrate. • Mix by swirling or inverting the contents until the substrate is thoroughly dissolved to form the Caspase-Glo® 3/7 Reagent • Aliquot and store at −20 • 2—If thawing the reagent, allow it to equilibrate to room temperature. Mix well. • 3—Remove white-walled 384-well plate containing treated cells from the incubator and allow plates to equilibrate to room temperature. • 4—Add Caspase-Glo® 3/7 Reagent to each well of the plate at 1:1 ratio with media. Because of the sensitivity of this assay, be careful not to touch pipet tips to the wells containing samples to avoid cross-contamination. Cover the plate with a plate sealer or lid. • 5—Gently mix contents of wells using a plate shaker at 300-500 rpm for 30 seconds. Incubate at room temperature for 30-60 minutes. Note: Temperature fluctuations will affect the luminescence reading. • 6—Measure the luminescence of each sample in a plate-reading luminometer as directed by the luminometer manufacturer.

[3] = test system: SOCS3; experiment: STAT3 RT-qPCR assay, SOCS3 mRNA; details: SU-DHL-1 cells
Procedure: as §1

[4] = test system: SUP-M2 cells; experiment: CellTiter-Glo cell viability, SUP-M2
[5] = test system: SU-DHL-1 cells; experiment: Wash-out study in SU-DHL-1 cells; details: 1 uM compound for 24 and 48 hr, then wash-out; FIGS. 10 and 18
Procedure: I-103 and I-174 were tested in the wash-out protocol.
• Seed cell suspension in T75 flasks and treat with 0.1% DMSO and 1 uM compound for 24 and 48 hr. Day 0 • Collect cell suspension from the flasks in conical tubes after 24 and 48 hr, spin down at 1,000 rpm for 5 min. • Remove supernatant. Wash with PBS, spin down at 1,000 rpm for 5 min, repeat PBS wash one more time. • Seed the cells at 2,000 cells per well in 384-well plates for growth inhibition measurement via CellTiterGlo (CTG) and 10,000 cells per well in 96-well plates for STAT3 levels via MSD. • Measure T0 for CTG and collect pellets to measure levels of STAT3 by MSD Day 1-4 • Measure CTG every day for 4 days post wash-out. • Collect pellets and measure levels of STAT3 by MSD every day for 4 days post wash-out. Growth inhibition was normalized to T0 and graphed as % control.

[6] = test system: SU-DHL-1; experiment: STAT3 decrease needed for SU-DHL-1 apoptosis and cell growth inhibition (FIG. 8, 17)
From the text: FIG. 8 depicts that a decrease of STAT3 by 90% using I-103 is necessary to induce SU-DHL-1 apoptosis and inhibit cell growth.
FIG. 17 depicts that a decrease of STAT3 by 90% using I-174 and I-94 is necessary to induce SU-DHL-1 apoptosis and inhibit cell growth.

[7] = test system: ALK+ALCL cell lines; experiment: growth inhibition in multiple ALK+ALCL cell lines; details: dose response curves, FIG. 16
[8] = test system: STAT3; experiment: STAT3 RT-qPCR assay, STAT3 mRNA; details: SU-DHL-1 cells, FIG. 5A, FIG. 15
Procedure: as §1

[9] = test system: SU-DHL-1 cells; experiment: CellTiter-Glo cell viability, SU-DHL-1
Procedure: Compound-mediated viability effect on MOLM-16 and SU-HDL-1 cells was quantitatively determined using the CellTiter-Glo® Luminescent Cell Viability Assay kit from Promega (Catalog number G7572) following manufacturer's recommended procedures.
Day 0: 60 nL of compounds/DMSO were stamped to the cell plate as on the recommended platemap. Compound precipitation was observed. Cells were centrifuged at 800 rpm for 5 min, suspended with culture medium, and counted with Countess (Invitrogen). The cell density was adjusted to the recommend concentration. 30 μL of cell solution (2000 cells/well) was added to the assay plate according to the platemap. 30 μL of media was added to column 2 and column 23 as on the platemap. The final concentration of the compounds except for the reference compound Paclitaxel was from 10 μM, 3-fold dilution and 11 dose (Paclitaxel started at 500 nM). The final DMSO concentration was 0.2%. The assay plate was incubated at 37° C., 5% CO2 for 4 days.
Day 4: The assay plate was equilibrated to RT for ˜10 minutes. Compound precipitation was observed (96h). To determine cell viability, 30 μL of CellTiter Glo reagent was added to each well and the assay plate was centrifuged at 1000 rpm for 30 second, incubated at room temperature for 10 min, and analyzed by detecting the luminescence using a multimode plate reader (EnVision 2105, PerkinElmer). The data was then analyzed by software Prism 7.0 from GraphPad and the dose response curves were fit using a three-parameter logistic equation to calculate EC50.

[10] = molecular target: STAT3 (Homo sapiens, UniProt P40763); experiment: STAT3 degradation (DC50) in multiple ALK+ALCL cell lines; details: dose response curves, FIG. 14
Chain of STAT3 (Homo sapiens, UniProt P40763) (P40763 whole entry): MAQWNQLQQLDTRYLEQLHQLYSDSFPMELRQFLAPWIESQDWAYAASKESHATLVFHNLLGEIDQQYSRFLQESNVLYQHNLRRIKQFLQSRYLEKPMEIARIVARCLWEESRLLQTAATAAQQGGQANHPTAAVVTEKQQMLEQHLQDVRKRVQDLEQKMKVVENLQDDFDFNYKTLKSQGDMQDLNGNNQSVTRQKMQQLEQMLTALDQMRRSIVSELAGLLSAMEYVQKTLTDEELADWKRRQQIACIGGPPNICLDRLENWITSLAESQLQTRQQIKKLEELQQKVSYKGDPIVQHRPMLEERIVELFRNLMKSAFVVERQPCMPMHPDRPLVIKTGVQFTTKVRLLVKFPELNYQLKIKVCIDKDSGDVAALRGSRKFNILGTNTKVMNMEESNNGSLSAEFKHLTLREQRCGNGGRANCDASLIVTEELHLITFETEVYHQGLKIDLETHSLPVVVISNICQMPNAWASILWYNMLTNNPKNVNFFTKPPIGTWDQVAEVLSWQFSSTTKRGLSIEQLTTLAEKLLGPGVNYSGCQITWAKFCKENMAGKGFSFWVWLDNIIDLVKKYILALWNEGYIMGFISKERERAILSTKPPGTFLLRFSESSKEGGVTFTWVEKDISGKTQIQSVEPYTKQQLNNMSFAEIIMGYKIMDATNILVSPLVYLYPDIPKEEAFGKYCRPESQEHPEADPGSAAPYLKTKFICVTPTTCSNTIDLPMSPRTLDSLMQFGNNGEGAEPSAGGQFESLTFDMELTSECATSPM

Cn1c(=O)n(C2CCC(=O)NC2=O)c2ccc(C[C@H]3CC[C@@H](CC(=O)N4CC[C@H]5CC[C@@H](C(=O)N[C@@H](CCC(N)=O)C(=O)NC(c6ccccc6)c6ccccc6)N5C(=O)[C@@H](NC(=O)c5cc6cc(C(=O)P(=O)(O)O)ccc6[nH]5)C4)CC3)cc21 (stereo partly drawn) [Compound I-174, 2-[[(5S,8S,10aR)-8-[[(1S)-3-carbamoyl-1-(diphenylmethylcarbamoyl)propyl]carbamoyl]-6-oxo-3-[2-[(1s,4s)-4-[[1-(2,6-dioxopiperidin-3-yl)-3-methyl-2-oxo-1,3-benzodiazol-5-yl]methyl]cyclohexyl]acetyl]-octahydropyrrolo[1,2-a][1,5]diazocin-5-yl]carbamoyl]-1H-indole-5-carbonylphosphonic acid]
IC50 ([1]; Homo sapiens, 24 hr): 0.029 µM
STAT3-dependent gene expression of PDL-1 ([1]; FIG. 5A, FIG. 15): downregulates
decrease of STAT3 necessary to induce SU-DHL-1 apoptosis and inhibit cell growth [2]: 90%
IC50 ([3]; Homo sapiens, 24 hr): 0.022 µM
STAT3-dependent gene expression of SOCS3 ([3]; FIG. 5A, FIG. 15): downregulates
IC50 ([4]; 96 h, SUP-M2, ALCL (ALK+), Day 4, read-out: CTG, IC50 μM, Day 4): 0.086 µM
CTG (% Max inh), Day 4 ([4]; SUP-M2, ALCL (ALK+), Day 4): (95) %
cell proliferation ([4]; SUP-M2, FIG. 16): inhibit
viability of SU-DHL-1 cells after wash-out [5]: profound effects on the viability of SU-DHL-1 cells
decrease of STAT3 necessary to induce SU-DHL-1 apoptosis and inhibit cell growth [6]: 90%
growth inhibition in multiple ALK+ALCL cell lines [7]: mediated growth inhibition
STAT3-dependent gene expression of STAT3 [8]: downregulates
IC50 ([9]; Homo sapiens, 96 h, SU-DHL-1, ALCL (ALK+), Day 4, read-out: CTG, IC50 μM, Day 4): 0.015 µM
CTG (% Max inh), Day 4 ([9]; SU-DHL-1, ALCL (ALK+), Day 4): (>95) %
cell proliferation ([9]; SU-DHL-1, FIG. 5B, FIG. 16): inhibit
degradation in multiple ALK+ALCL cell lines [10]: mediated degradation
